Laboratory results reported in patent publication US12679878B2, “CRF2 receptor agonists and their use in therapy” (SANOFI, priority 2020, dated 2026).
Starred links: 1 amine or outer side, 2 acyl side, 3 side chain; linkers in the order of their positions; H or OH if unused. Non-standard residues stand in square brackets, D forms with d. Residues, ends and D or L forms follow the SMILES beside them. Groups on a side chain read outwards from the residue. *: point of attachment. C16 diacid = O=C(O)CCCCCCCCCCCCCCC(=O)*; γGlu = O=C(O)[C@H](CCC(=O)[*:2])N[*:1]; AEEA = NCCOCCOCC(=O)O; Aib = CC(C)(N)C(=O)O

Key:
human CRF2α receptor = target: T1, human CRF2α receptor (Homo sapiens, UniProt Q13324); assay: cAMP agonism at human CRF2α receptor in TeloHEAC cells, FA modified peptides (Example 19.9); assay type: cell-based; conditions: 0% HSA, relative to urocortin 2
T1 construct: expressed in transfected cells; host or cells: TeloHEAC
T1 sequence (Q13324 1-411): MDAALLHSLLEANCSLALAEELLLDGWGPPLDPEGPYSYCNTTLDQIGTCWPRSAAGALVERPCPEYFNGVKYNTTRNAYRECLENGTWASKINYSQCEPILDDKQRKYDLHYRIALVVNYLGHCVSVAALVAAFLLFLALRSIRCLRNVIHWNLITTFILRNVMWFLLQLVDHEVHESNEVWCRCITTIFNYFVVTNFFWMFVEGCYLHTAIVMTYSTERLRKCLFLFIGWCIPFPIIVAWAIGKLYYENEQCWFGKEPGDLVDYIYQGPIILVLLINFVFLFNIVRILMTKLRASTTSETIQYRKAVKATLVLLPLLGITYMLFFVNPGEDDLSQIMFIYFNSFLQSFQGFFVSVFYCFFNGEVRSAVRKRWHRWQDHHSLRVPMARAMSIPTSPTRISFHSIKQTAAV
Procedure, shortened: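 Efficacy and EC50 are referenced to 100 nM urocortin 2 as 100%, with cAMP measured as the 665/620 nm HTRF ratio after 1 h at room temperature. Compounds (0.5 mM DMSO stock, 16 twofold dilutions) acted 30 min at 37 °C on CRF2α-expressing TeloHEAC cells, buffer containing IBMX and 0% or 0.2% HSA.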

CRF1R receptor = target: T2, CRF1R receptor (Homo sapiens, UniProt P34998); assay: cAMP activity at anti-target CRF1R, CHO-K1 cell line clone 2 (Example 19.10); assay type: cell-based; conditions: CRF1R CHO-K1 clone 2; for EC50: 0% HSA, read-out: EC50 [nM] 0% HSA; for Emax: 100% = Sauvagine at 100 nM
T2 construct: host or cells: CHO-K1 clone 2
T2 sequence (P34998 24-415): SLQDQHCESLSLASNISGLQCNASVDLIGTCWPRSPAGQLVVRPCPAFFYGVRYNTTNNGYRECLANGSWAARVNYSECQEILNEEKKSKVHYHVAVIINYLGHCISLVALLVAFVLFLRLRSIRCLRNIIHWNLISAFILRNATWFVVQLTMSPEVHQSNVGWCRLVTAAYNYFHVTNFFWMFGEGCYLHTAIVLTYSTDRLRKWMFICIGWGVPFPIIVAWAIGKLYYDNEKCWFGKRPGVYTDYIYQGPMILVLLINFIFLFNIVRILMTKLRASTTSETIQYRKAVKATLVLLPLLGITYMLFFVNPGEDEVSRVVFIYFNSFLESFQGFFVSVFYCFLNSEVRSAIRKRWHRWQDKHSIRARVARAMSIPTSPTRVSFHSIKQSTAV
Procedure, shortened: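 A CRF1R-overexpressing CHO-K1 line (clone 2) was grown in F12/10% FBS/G418 and frozen in aliquots before use. The cAMP assay followed the preceding procedure, with 100% activation defined by Sauvagine at 100 nM.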

| SMILES | EC50 (human CRF2α receptor) [nM] | EC50 (CRF1R receptor) [nM] | Emax (CRF1R receptor) [%] |
| --- | --- | --- | --- |
| CC[C@H](C)[C@H](N)C(=O)N[C@H](C(=O)N[C@@H](CC(C)C)C(=O)N[C@@H](CO)C(=O)N[C@@H](CC(C)C)C(=O)N[C@@H](CC(=O)O)C(=O)N[C@@H](C(=O)N1CCC[C@H]1C(=O)N[C@H](C(=O)N[C@@H](CCCCN)C(=O)N[C@@H](CC(C)C)C(=O)N[C@@H](CCCCNC(=O)COCCOCCNC(=O)COCCOCCNC(=O)CC[C@H](NC(=O)CC[C@H](NC(=O)CCCCCCCCCCCCCCC(=O)O)C(=O)O)C(=O)O)C(=O)N[C@@H](CCC(N)=O)C(=O)N[C@H](C(=O)N[C@@H](CC(C)C)C(=O)N[C@@H](CC(C)C)C(=O)N[C@@H](CCCCN)C(=O)N[C@@H](CCC(N)=O)C(=O)N[C@@H](CCC(=O)O)C(=O)N[C@@H](CCCNC(=N)N)C(=O)N[C@@H](CCC(N)=O)C(=O)N[C@@H](CCCCN)C(=O)NC(C)(C)C(=O)N[C@@H](CCC(N)=O)C(=O)N[C@@H](CCCNC(=N)N)C(=O)N[C@@H](CCC(=O)O)C(=O)N[C@@H](CCC(N)=O)C(=O)N[C@@H](C)C(=O)N[C@@H](CCC(=O)O)C(=O)N[C@@H](CCCCN)C(=O)N[C@@H](CC(N)=O)C(=O)N[C@@H](CCCCN)C(=O)N[C@@H](CCC(N)=O)C(=O)N[C@H](C(=O)N[C@@H](CC(C)C)C(=O)N[C@@H](C)C(=O)N[C@@H](CCC(N)=O)C(=O)N[C@H](C(N)=O)C(C)C)[C@@H](C)CC)[C@@H](C)CC)[C@@H](C)CC)C(C)C)C(C)C [compound 199] (H-IVLSLD[dV]PIKLK([AEEA-AEEA-γGlu-γGlu-C16 diacid])QILLKQERQK[Aib]QREQAEKNKQILAQV-NH2; N-terminus assumed) | 1.39 | > 100 | -2.9 |
| CC[C@H](C)[C@H](N)C(=O)N[C@H](C(=O)N[C@@H](CC(C)C)C(=O)N[C@@H](CO)C(=O)N[C@@H](CC(C)C)C(=O)N[C@@H](CC(=O)O)C(=O)N[C@@H](C(=O)N1CCC[C@H]1C(=O)N[C@H](C(=O)N[C@@H](CCCCN)C(=O)N[C@@H](CC(C)C)C(=O)N[C@@H](CCCCNC(=O)COCCOCCNC(=O)COCCOCCNC(=O)CC[C@H](NC(=O)CCCCCCCCCCCCCCC(=O)O)C(=O)O)C(=O)N[C@@H](CCC(N)=O)C(=O)N[C@H](C(=O)N[C@@H](CC(C)C)C(=O)N[C@@H](CC(C)C)C(=O)N[C@@H](CCCCN)C(=O)N[C@@H](CCC(N)=O)C(=O)N[C@@H](CCC(=O)O)C(=O)N[C@@H](CCCNC(=N)N)C(=O)N[C@@H](CCC(N)=O)C(=O)N[C@@H](CCCCN)C(=O)N[C@@H](CCCCN)C(=O)NC(C)(C)C(=O)N[C@@H](CCCNC(=N)N)C(=O)N[C@@H](CCC(N)=O)C(=O)N[C@@H](CCCCN)C(=O)N[C@@H](C)C(=O)N[C@@H](CCC(=O)O)C(=O)N[C@@H](CCCCN)C(=O)N[C@@H](CC(N)=O)C(=O)N[C@@H](CCCCN)C(=O)N[C@@H](CCC(N)=O)C(=O)N[C@H](C(=O)N[C@@H](CC(C)C)C(=O)N[C@@H](C)C(=O)N[C@@H](CCC(N)=O)C(=O)N[C@H](C(N)=O)C(C)C)[C@@H](C)CC)[C@@H](C)CC)[C@@H](C)CC)C(C)C)C(C)C [compound 200] (H-IVLSLD[dV]PIKLK([AEEA-AEEA-γGlu-C16 diacid])QILLKQERQKK[Aib]RQKAEKNKQILAQV-NH2; N-terminus assumed) | 8.7 | > 100 | 1.9 |
| CC[C@H](C)[C@H](N)C(=O)N[C@H](C(=O)N[C@@H](CC(C)C)C(=O)N[C@@H](CO)C(=O)N[C@@H](CC(C)C)C(=O)N[C@@H](CC(=O)O)C(=O)N[C@@H](C(=O)N1CCC[C@H]1C(=O)N[C@H](C(=O)N[C@@H](CCCCN)C(=O)N[C@@H](CC(C)C)C(=O)N[C@@H](CCCCNC(=O)COCCOCCNC(=O)COCCOCCNC(=O)CC[C@H](NC(=O)CC[C@H](NC(=O)CCCCCCCCCCCCCCC(=O)O)C(=O)O)C(=O)O)C(=O)N[C@@H](CCC(N)=O)C(=O)N[C@H](C(=O)N[C@@H](CC(C)C)C(=O)N[C@@H](CC(C)C)C(=O)N[C@@H](CCCCN)C(=O)N[C@@H](CCC(N)=O)C(=O)N[C@@H](CCC(=O)O)C(=O)N[C@@H](CCCNC(=N)N)C(=O)N[C@@H](CCC(N)=O)C(=O)N[C@@H](CCCCN)C(=O)N[C@@H](CCCCN)C(=O)NC(C)(C)C(=O)N[C@@H](CCCNC(=N)N)C(=O)N[C@@H](CCC(N)=O)C(=O)N[C@@H](CCCCN)C(=O)N[C@@H](C)C(=O)N[C@@H](CCC(=O)O)C(=O)N[C@@H](CCCCN)C(=O)N[C@@H](CC(N)=O)C(=O)N[C@@H](CCCCN)C(=O)N[C@@H](CCC(N)=O)C(=O)N[C@H](C(=O)N[C@@H](CC(C)C)C(=O)N[C@@H](C)C(=O)N[C@@H](CCC(N)=O)C(=O)N[C@H](C(N)=O)C(C)C)[C@@H](C)CC)[C@@H](C)CC)[C@@H](C)CC)C(C)C)C(C)C [compound 201] (H-IVLSLD[dV]PIKLK([AEEA-AEEA-γGlu-γGlu-C16 diacid])QILLKQERQKK[Aib]RQKAEKNKQILAQV-NH2; N-terminus assumed) | 4.66 | > 100 | -2.8 |
| CC[C@H](C)[C@H](N)C(=O)N[C@H](C(=O)N[C@@H](CC(C)C)C(=O)N[C@@H](CO)C(=O)N[C@@H](CC(C)C)C(=O)N[C@@H](CC(=O)O)C(=O)N[C@@H](C(=O)N1CCC[C@H]1C(=O)N[C@H](C(=O)NCC(=O)N[C@@H](CC(C)C)C(=O)N[C@@H](CCCCNC(=O)COCCOCCNC(=O)COCCOCCNC(=O)CC[C@H](NC(=O)CCCCCCCCCCCCCCC(=O)O)C(=O)O)C(=O)N[C@@H](CCC(N)=O)C(=O)N[C@H](C(=O)N[C@@H](CC(C)C)C(=O)N[C@@H](CC(C)C)C(=O)N[C@@H](CCCCN)C(=O)N[C@@H](CCC(N)=O)C(=O)N[C@@H](CCC(=O)O)C(=O)N[C@@H](CCCNC(=N)N)C(=O)N[C@@H](CCC(N)=O)C(=O)N[C@@H](CCCCN)C(=O)N[C@@H](CCCCN)C(=O)NC(C)(C)C(=O)N[C@@H](CCCNC(=N)N)C(=O)N[C@@H](CCC(=O)O)C(=O)N[C@@H](CCC(N)=O)C(=O)N[C@@H](C)C(=O)N[C@@H](CCC(=O)O)C(=O)N[C@H](C(=O)N[C@@H](CC(N)=O)C(=O)N[C@@H](CCCCN)C(=O)N[C@@H](CCC(N)=O)C(=O)N[C@H](C(=O)N[C@@H](CC(C)C)C(=O)N[C@@H](C)C(=O)N[C@@H](CCC(N)=O)C(=O)N[C@H](C(N)=O)C(C)C)[C@@H](C)CC)[C@@H](C)O)[C@@H](C)CC)[C@@H](C)CC)C(C)C)C(C)C [compound 202] (H-IVLSLD[dV]PIGLK([AEEA-AEEA-γGlu-C16 diacid])QILLKQERQKK[Aib]REQAETNKQILAQV-NH2; N-terminus assumed) | 0.87 | > 100 | 5.4 |
| CC[C@H](C)[C@H](N)C(=O)N[C@H](C(=O)N[C@@H](CC(C)C)C(=O)N[C@@H](CO)C(=O)N[C@@H](CC(C)C)C(=O)N[C@@H](CC(=O)O)C(=O)N[C@@H](C(=O)N1CCC[C@H]1C(=O)N[C@H](C(=O)NCC(=O)N[C@@H](CC(C)C)C(=O)N[C@@H](CCCCNC(=O)COCCOCCNC(=O)COCCOCCNC(=O)CC[C@H](NC(=O)CC[C@H](NC(=O)CCCCCCCCCCCCCCC(=O)O)C(=O)O)C(=O)O)C(=O)N[C@@H](CCC(N)=O)C(=O)N[C@H](C(=O)N[C@@H](CC(C)C)C(=O)N[C@@H](CC(C)C)C(=O)N[C@@H](CCCCN)C(=O)N[C@@H](CCC(N)=O)C(=O)N[C@@H](CCC(=O)O)C(=O)N[C@@H](CCCNC(=N)N)C(=O)N[C@@H](CCC(N)=O)C(=O)N[C@@H](CCCCN)C(=O)N[C@@H](CCCCN)C(=O)NC(C)(C)C(=O)N[C@@H](CCCNC(=N)N)C(=O)N[C@@H](CCC(=O)O)C(=O)N[C@@H](CCC(N)=O)C(=O)N[C@@H](C)C(=O)N[C@@H](CCC(=O)O)C(=O)N[C@H](C(=O)N[C@@H](CC(N)=O)C(=O)N[C@@H](CCCCN)C(=O)N[C@@H](CCC(N)=O)C(=O)N[C@H](C(=O)N[C@@H](CC(C)C)C(=O)N[C@@H](C)C(=O)N[C@@H](CCC(N)=O)C(=O)N[C@H](C(N)=O)C(C)C)[C@@H](C)CC)[C@@H](C)O)[C@@H](C)CC)[C@@H](C)CC)C(C)C)C(C)C [compound 203] (H-IVLSLD[dV]PIGLK([AEEA-AEEA-γGlu-γGlu-C16 diacid])QILLKQERQKK[Aib]REQAETNKQILAQV-NH2; N-terminus assumed) | 4.7 | > 100 | 4.7 |
